14 compounds from ChEMBL document CHEMBL4610070, “Talauxins: Hybrid Phenalenone Dimers from Talaromyces stipitatus” (J Nat Prod, 2020) can be followed below.

The IC50 is the concentration that gives 50% inhibition. The term MIC denotes the smallest concentration in the dilution series that meets the test's criterion for growth inhibition.

Assay [1] relates to Saccharomyces cerevisiae. As to the kind of experiment: Antifungal activity against Saccharomyces cerevisiae ATCC 9763 assessed as reduction in microbial growth up to 100 ug/ml after incubated for 48 hrs by bromocresol green dye based assay. It is filed as functional, organism-based.
Assay [2] concerns Candida albicans. Put plainly: Antifungal activity against Candida albicans ATCC 10231 assessed as reduction in microbial growth up to 100 ug/ml after incubated for 48 hrs by bromocresol green dye based assay. It is filed as functional, organism-based.
The species named for the next assay is Mus musculus. Put plainly: Antiproliferative activity against mouse NS1 cells assessed as reduction in cell viability up to 100 ug/ml after 48 hrs by resazurin dye based assay. It is filed as functional.
The subject of assay [3] is Escherichia coli. Put plainly: Antibacterial activity against Escherichia coli ATCC 25922 assessed as reduction in microbial growth up to 100 ug/ml after incubated for 48 hrs by resazurin dye based assay. It is filed as functional, organism-based.
Assay [4] has as its system Bacillus subtilis. Put plainly: Antibacterial activity against Bacillus subtilis ATCC 6633 assessed as reduction in microbial growth up to 100 ug/ml after incubated for 48 hrs by resazurin dye based assay. It is filed as functional, organism-based. Background: The colour change of resazurin is a common sign of viable cells or microbes.
Assay [5] can be described thus: Antiproliferative activity against mouse NS1 cells assessed as reduction in cell viability after 48 hrs by resazurin dye based assay. As to conditions: for IC50: NS1, 48 h; for MIC: 48 h. It is filed as functional.
Assay [6] relates to Bacillus subtilis. Put plainly: Antibacterial activity against Bacillus subtilis ATCC 6633 assessed as reduction in microbial growth after incubated for 48 hrs by resazurin dye based assay. It is filed as functional, organism-based. Conditions: ATCC 6633, 48 h.
In assay [7] the test system is Escherichia coli. Put plainly: Antibacterial activity against Escherichia coli ATCC 25922 assessed as reduction in microbial growth after incubated for 48 hrs by resazurin dye based assay. It is filed as functional, organism-based.
In assay [8] the test system is Saccharomyces cerevisiae. As to the kind of experiment: Antifungal activity against Saccharomyces cerevisiae ATCC 9763 assessed as reduction in microbial growth after incubated for 48 hrs by bromocresol green dye based assay. It is filed as functional, organism-based. As to conditions: ATCC 9763, 48 h.
In assay [9] the test system is Candida albicans. Put plainly: Antifungal activity against Candida albicans ATCC 10231 assessed as reduction in microbial growth after incubated for 48 hrs by bromocresol green dye based assay. It is filed as functional, organism-based.

≈ marks a conversion by molar mass, not a printed value. Calls of active or inactive are those of the source.

`CC[C@H](C)[C@@H](C(=O)O)n1cc2c3c(c(C)cc(O)c3c1=O)[C@]1(OC)[C@H](C2=O)[C@]23COC(=O)c4c(O)cc(C)c(c42)C(=O)[C@H]1[C@@H]3OC(C)=O`: the result in the assay with Saccharomyces cerevisiae [1], in the assay on Candida albicans [2], in the assay listed under Mus musculus, in the assay on Escherichia coli [3] and in the assay on Bacillus subtilis [4] was inactive.

As to `CO[C@@]12c3c(C)cc(O)c4c(=O)n([C@@H](CCC(=O)O)C(=O)O)cc(c34)C(=O)[C@@H]1[C@]13COC(=O)c4c(O)cc(C)c(c41)C(=O)[C@H]2[C@@H]3OC(C)=O`, the result in the assay on Saccharomyces cerevisiae [1], with Candida albicans [2], in the assay listed under Mus musculus, in the assay on Escherichia coli [3] and with Bacillus subtilis [4] was inactive.

Take `O=c1[nH]cc(F)c(=O)[nH]1` [FLUOROURACIL]: the IC50 in assay [5] was found to be 4.6 µM.

Take `CC[C@@H](C)[C@H](C(=O)O)n1cc2c3c(c(C)cc(O)c3c1=O)[C@]1(OC)[C@H](C2=O)[C@]23COC(=O)c4c(O)cc(C)c(c42)C(=O)[C@H]1[C@@H]3OC(C)=O`: the result in the assay on Saccharomyces cerevisiae [1], with Candida albicans [2], in the assay listed under Mus musculus, with Escherichia coli [3] and with Bacillus subtilis [4] was inactive.

For `CO[C@@]12c3c(C)cc(O)c4c(=O)n([C@@H](CC(C)C)C(=O)O)cc(c34)C(=O)[C@@H]1[C@]13COC(=O)c4c(O)cc(C)c(c41)C(=O)[C@H]2[C@@H]3OC(C)=O`, the result in the assay with Saccharomyces cerevisiae [1], with Candida albicans [2], in the assay listed under Mus musculus, in the assay with Escherichia coli [3] and in the assay with Bacillus subtilis [4] was inactive.

For the compound `CC(=O)CC1(O)C(=O)c2c(O)cc(C)c3c(O)cc(O)c(c23)C1=O` (stereo not drawn), the result in the assay on Saccharomyces cerevisiae [1], in the assay on Candida albicans [2], in the assay listed under Mus musculus, in the assay with Escherichia coli [3] and in the assay on Bacillus subtilis [4] was inactive.

In the case of `CC1(C)S[C@@H]2[C@H](NC(=O)[C@H](N)c3ccccc3)C(=O)N2[C@H]1C(=O)O` [AMPICILLIN], the results for the IC50 in the assay with Bacillus subtilis [6] and with Escherichia coli [7] were 0.9 µM and “Not Active”, respectively.

`Clc1ccccc1C(c1ccccc1)(c1ccccc1)n1ccnc1` [CLOTRIMAZOLE]: the IC50 in the assay with Saccharomyces cerevisiae [8] is 0.4 µM; in the assay with Candida albicans [9], “Not Active”.

For `CO[C@@]12c3c(C)cc(O)c4c(=O)occ(c34)C(=O)[C@@H]1[C@]13COC(=O)c4c(O)cc(C)c(c41)C(=O)[C@H]2[C@@H]3OC(C)=O`, the IC50 in the assay on Saccharomyces cerevisiae [8] is > 200 µM; in assay [5] it was 140 µM; in the assay with Bacillus subtilis [6], > 200 µM; in the assay with Escherichia coli [7] it was “Not Active”; in the assay with Candida albicans [9], “Not Active”. The MIC in assay [5] stood at 100 µg/mL (≈ 183 µM).

Turning to `CO[C@@]12c3c(C)cc(O)c4c(=O)n([C@@H](CCC(N)=O)C(=O)O)cc(c34)C(=O)[C@@H]1[C@]13COC(=O)c4c(O)cc(C)c(c41)C(=O)[C@H]2[C@@H]3OC(C)=O`, the outcome in the assay with Saccharomyces cerevisiae [1], in the assay on Candida albicans [2], in the assay listed under Mus musculus, in the assay with Escherichia coli [3] and in the assay on Bacillus subtilis [4] was inactive.

For `Cc1cc(O)c2c3c1C(=O)[C@@H]1C4=C(C(=O)c5cn([C@H](C(=O)O)C(C)C)c(=O)c6c(O)cc(C)c4c56)[C@@]3(COC2=O)[C@H]1O`, the outcome with Saccharomyces cerevisiae [1], with Candida albicans [2], in the assay filed under Mus musculus, in the assay with Escherichia coli [3] and in the assay on Bacillus subtilis [4] was inactive.

As for `CO[C@@]12c3c(C)cc(O)c4c(=O)n([C@H](C(=O)O)C(C)C)cc(c34)C(=O)[C@@H]1[C@]13COC(=O)c4c(O)cc(C)c(c41)C(=O)[C@H]2[C@@H]3OC(C)=O`, the result in the assay with Saccharomyces cerevisiae [1], with Candida albicans [2], in the assay filed under Mus musculus, with Escherichia coli [3] and with Bacillus subtilis [4] was inactive.

As for `Cc1cc(O)c2c3c(c(O)cc(O)c13)C(=O)C(O)=C2O`, the IC50 is > 400 µM in the assay on Saccharomyces cerevisiae [8]; 70 µM in assay [5]; 265 µM with Bacillus subtilis [6]; “Not Active” in the assay on Escherichia coli [7]; “Not Active” in the assay with Candida albicans [9]. Also, the results for the minimal inhibitory concentration (MIC) (in [5]; in the assay with Bacillus subtilis [6]) were 25 µg/mL (≈ 91.2 µM) and 100 µg/mL, respectively.

For `CO[C@@]12c3c(C)cc(O)c4c(=O)n([C@H](CC(C)C)C(=O)O)cc(c34)C(=O)[C@@H]1[C@]13COC(=O)c4c(O)cc(C)c(c41)C(=O)[C@H]2[C@@H]3OC(C)=O`, the result in the assay with Saccharomyces cerevisiae [1], in the assay on Candida albicans [2], in the assay listed under Mus musculus, with Escherichia coli [3] and in the assay with Bacillus subtilis [4] was inactive.
